Entries after “also recorded” stand apart in the source; their conditions may differ.
What was measured:
[1] = target: T1, PAH2 domain of mouse M. musculus SIN3B (Mus musculus, UniProt Q62141, C241A); assay: Ligand-detected NMR, mouse SIN3B PAH2; type: binding
T1 construct: M. musculus SIN3B PAH2 C241A (residues 148-252) expressing plasmid; GST (cleaved yes); made in house; host or cells: E. coli BL21 (DE3), minimal medium with 15N-ammonium chloride and 13C-glucose
Procedure: Expression of mouse ^13C/^15N SIN3B PAH2: the same M. musculus SIN3B PAH2 C241A (residues 148-252) expressing plasmid as reported by [Kumar et al 2011] was used here. The construct was overexpressed in E. coli BL21 (DE3) in 1 L of minimum medium supplemented with 1 g 15N-ammonium chloride (Cambridge Isotope Laboratories) and 2 g 13C-glucose (Cambridge Isotope Laboratories). Cells were grown at 37° C. to an OD of 0.8, cooled to 17° C., induced with 500 μM isopropyl-1-thio-D-galactopyranoside, incubated overnight at 17° C., collected by centrifugation, and stored at −80° C. 13C/15N-double labeled protein was purified as for other GST-fused constructs. The GST tag was cleaved as described above.
Ligand-detected NMR experiments: all results were acquired using a 3 mm tube at 25° C. on a Bruker 600 MHz Avance II system equipped with a CPPTCI cryoprobe (Bruker BioSpin Corp.). In all experiments, the concentration of E6R was fixed at 300 μM (from a stock of 25 mM in deuterated DMSO) and the concentration of the protein at 10 μM. The volume of deuterated DMSO was kept constant (1.5%) in all tested samples. […] Proton spectra used to measure DLB and chemical shift perturbations in the absence and presence of the proteins were recorded with 16 scans using a recycle delay of 3 s. […]

human SIN3B PAH2 domain = target: T2, human SIN3B PAH2 domain (Homo sapiens, UniProt O75182); assay: Ligand-detected NMR, human SIN3B PAH2; type: binding, H. sapiens; conditions: 300 μM compound, 10 μM protein
T2 construct: Residues 155-241 of human SIN3B (PAH2 domain) were inserted into the pMALC2XE vector for NMR experiments; made in house; host or cells: E. coli BL21 (DE3)
Procedure: (§1) Ligand-detected NMR experiments: all results were acquired using a 3 mm tube at 25° C. on a Bruker 600 MHz Avance II system equipped with a CPPTCI cryoprobe (Bruker BioSpin Corp.). In all experiments, the concentration of E6R was fixed at 300 μM (from a stock of 25 mM in deuterated DMSO) and the concentration of the protein at 10 μM. The volume of deuterated DMSO was kept constant (1.5%) in all tested samples. Right before the experiments, the compound and protein were diluted in 1×PBS containing 0.1% deuterated dithiothreitol (DTT) to a total volume of 200 μL. Samples were diluted by 5% with D2O for magnetic field lock. Spectra were acquired for ligand only, protein only, and ligand+protein. […] STD experiments [Mayer et al 2001] were acquired with 160 scans, with protein irradiation applied for 3 s at 0 ppm and −20 ppm for the on and off resonance experiments, respectively. On and off resonance spectra were collected and stored separately. One-dimensional CPMG-R2 edited experiments [Hajduk et al 1997] were collected for samples with and without proteins using seven CPMG delays (0, 25, 50, 100, 300, 500, and 800 ms) with four scans per delay. Proton spectra used to measure DLB and chemical shift perturbations in the absence and presence of the proteins were recorded with 16 scans using a recycle delay of 3 s. […]

[2] = system: PAH1 and PAH3 domains of human SIN3A and SIN3B; assay: Ligand-detected NMR, human SIN3A and SIN3B PAH1 and PAH3; type: binding, H. sapiens; conditions: FIG. 28
Procedure: as §1

T2 sequence (O75182 155-241): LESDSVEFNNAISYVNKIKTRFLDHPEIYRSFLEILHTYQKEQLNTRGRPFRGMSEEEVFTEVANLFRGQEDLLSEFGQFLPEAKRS
T1 sequence (Q62141 148-252 C241A): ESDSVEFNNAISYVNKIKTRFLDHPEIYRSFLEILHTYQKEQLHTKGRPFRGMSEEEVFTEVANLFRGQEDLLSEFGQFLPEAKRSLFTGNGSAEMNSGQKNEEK

Structure (SMILES): C[C@@H](NC(=O)c1c(O)n2ccccc2nc1=O)c1ccccc1 [E6R, 4-hydroxy-2-oxo-N—((R)-1-phenylethyl)-3,4-dihydro-2H-pyrido[, 2-a]pyrimidine-3-carboxamide]
- binding to mouse SIN3B PAH2 by NMR [1]: virtually identical to those of yeast Sin3 PAH2
- binding to human SIN3B PAH2 by NMR (human SIN3B PAH2 domain): could bind; also recorded: virtually identical to those of yeast Sin3 PAH2
- binding to other PAH domains of human SIN3A and SIN3B by NMR [2]: can bind

From patent publication US20240299393A1, “SMALL MOLECULE DISRUPTORS OF PROTEIN INTERACTIONS IN HISTONE DEACETYLASE COMPLEXES” (Dana-Farber Cancer Institute, Inc., priority 2021, published 2024)
